# Results: the NIST ThermoML archive (doi:10.1016/j.jct.2018.09.024)
# ± gives the expanded uncertainty stated by the source.
# Legend:
# [1] = molar heat capacity at constant pressure; conditions: 101.33 kPa, Liquid, DSC
# [2] = 101.33 kPa, Liquid, Laser flash apparatus
SMILES,molar heat capacity at constant pressure ([1]; 303.15 K) [J/K/mol],molar heat capacity at constant pressure ([1]; 313.15 K) [J/K/mol],molar heat capacity at constant pressure ([1]; 323.15 K) [J/K/mol],molar heat capacity at constant pressure ([1]; 333.15 K) [J/K/mol],molar heat capacity at constant pressure ([1]; 343.15 K) [J/K/mol],molar heat capacity at constant pressure ([1]; 353.15 K) [J/K/mol],molar heat capacity at constant pressure ([1]; 363.15 K) [J/K/mol],molar heat capacity at constant pressure ([1]; 373.15 K) [J/K/mol],thermal diffusivity ([2]; 303.15 K) [m2/s],thermal diffusivity ([2]; 313.15 K) [m2/s],thermal diffusivity ([2]; 323.15 K) [m2/s],thermal diffusivity ([2]; 333.15 K) [m2/s],thermal diffusivity ([2]; 343.15 K) [m2/s],thermal diffusivity ([2]; 353.15 K) [m2/s],thermal diffusivity ([2]; 363.15 K) [m2/s],thermal diffusivity ([2]; 373.15 K) [m2/s],thermal diffusivity ([2]; 383.15 K) [m2/s],thermal diffusivity ([2]; 393.15 K) [m2/s],thermal diffusivity ([2]; 403.15 K) [m2/s],other results
CCCCCCCCCCCC(=O)OC [methyl dodecanoate],449 ± 18,452.8 ± 18,457.4 ± 19,462.6 ± 19,468.4 ± 19,474.5 ± 19,480.7 ± 20,486.8 ± 20,8.27e-08 ± 4.4e-09,8.15e-08 ± 4.3e-09,8.03e-08 ± 4.3e-09,7.91e-08 ± 4.2e-09,7.79e-08 ± 4.2e-09,7.67e-08 ± 4.1e-09,7.55e-08 ± 4e-09,7.43e-08 ± 4e-09,7.3e-08 ± 3.9e-09,7.18e-08 ± 3.8e-09,7.06e-08 ± 3.8e-09,thermal diffusivity ([2]; 413.15 K): 6.94e-08 ± 3.7e-09 m2/s; thermal diffusivity ([2]; 423.15 K): 6.82e-08 ± 3.7e-09 m2/s
CCCCCCC(=O)OC [methyl heptanoate],289.2 ± 12,292.5 ± 12,296.2 ± 12,300.1 ± 12,304.3 ± 12,308.6 ± 12,312.8 ± 13,316.9 ± 13,7.82e-08 ± 4.2e-09,7.71e-08 ± 4.1e-09,7.59e-08 ± 4.1e-09,7.48e-08 ± 4e-09,7.36e-08 ± 3.9e-09,7.25e-08 ± 3.9e-09,7.14e-08 ± 3.8e-09,,,,,
CCCCCC(=O)OC [methyl hexanoate],246.4 ± 10,248.8 ± 10,251.5 ± 10,254.6 ± 10,257.9 ± 10,261.5 ± 11,265.5 ± 11,269.6 ± 11,7.76e-08 ± 4.1e-09,7.66e-08 ± 4.1e-09,7.56e-08 ± 4e-09,7.46e-08 ± 4e-09,,,,,,,,
CCCCCCCC(=O)OC [methyl octanoate],316.6 ± 13,320.5 ± 13,324.4 ± 13,328.7 ± 13,333.2 ± 14,337.8 ± 14,342.8 ± 14,347 ± 14,7.92e-08 ± 4.2e-09,7.81e-08 ± 4.2e-09,7.69e-08 ± 4.1e-09,7.57e-08 ± 4e-09,7.46e-08 ± 4e-09,7.34e-08 ± 3.9e-09,7.22e-08 ± 3.9e-09,7.11e-08 ± 3.8e-09,6.99e-08 ± 3.7e-09,,,
CCCCCCCCCCC(=O)OC [methyl undecanoate],411.4 ± 17,415.9 ± 17,420.9 ± 17,426.1 ± 17,431.4 ± 18,436.7 ± 18,441.8 ± 18,446.5 ± 18,8.22e-08 ± 4.4e-09,8.1e-08 ± 4.3e-09,7.98e-08 ± 4.3e-09,7.86e-08 ± 4.2e-09,7.74e-08 ± 4.1e-09,7.62e-08 ± 4.1e-09,7.5e-08 ± 4e-09,7.38e-08 ± 4e-09,7.26e-08 ± 3.9e-09,7.14e-08 ± 3.8e-09,7.02e-08 ± 3.8e-09,thermal diffusivity ([2]; 413.15 K): 6.9e-08 ± 3.7e-09 m2/s; thermal diffusivity ([2]; 423.15 K): 6.78e-08 ± 3.6e-09 m2/s

# More lines, main results first:
molar heat capacity at constant pressure ([1]; 303.15 K) [J/K/mol],molar heat capacity at constant pressure ([1]; 313.15 K) [J/K/mol],molar heat capacity at constant pressure ([1]; 323.15 K) [J/K/mol],molar heat capacity at constant pressure ([1]; 333.15 K) [J/K/mol],molar heat capacity at constant pressure ([1]; 343.15 K) [J/K/mol],molar heat capacity at constant pressure ([1]; 353.15 K) [J/K/mol],molar heat capacity at constant pressure ([1]; 363.15 K) [J/K/mol],molar heat capacity at constant pressure ([1]; 373.15 K) [J/K/mol],thermal diffusivity ([2]; 303.15 K) [m2/s],thermal diffusivity ([2]; 313.15 K) [m2/s],thermal diffusivity ([2]; 323.15 K) [m2/s],thermal diffusivity ([2]; 333.15 K) [m2/s],thermal diffusivity ([2]; 343.15 K) [m2/s],thermal diffusivity ([2]; 353.15 K) [m2/s],thermal diffusivity ([2]; 363.15 K) [m2/s],thermal diffusivity ([2]; 373.15 K) [m2/s],thermal diffusivity ([2]; 383.15 K) [m2/s],thermal diffusivity ([2]; 393.15 K) [m2/s],thermal diffusivity ([2]; 403.15 K) [m2/s],SMILES,other results
384.7 ± 16,387.6 ± 16,391.8 ± 16,396.7 ± 16,401.9 ± 16,407.3 ± 16,412.4 ± 17,417.2 ± 17,8.1e-08 ± 4.3e-09,7.99e-08 ± 4.3e-09,7.87e-08 ± 4.2e-09,7.75e-08 ± 4.1e-09,7.64e-08 ± 4.1e-09,7.52e-08 ± 4e-09,7.4e-08 ± 4e-09,7.28e-08 ± 3.9e-09,7.17e-08 ± 3.8e-09,7.05e-08 ± 3.8e-09,6.93e-08 ± 3.7e-09,CCCCCCCCCC(=O)OC [methyl decanoate],
351.7 ± 14,354.7 ± 14,358.6 ± 15,363.1 ± 15,367.9 ± 15,372.8 ± 15,377.6 ± 15,382 ± 16,8.01e-08 ± 4.3e-09,7.89e-08 ± 4.2e-09,7.78e-08 ± 4.2e-09,7.66e-08 ± 4.1e-09,7.54e-08 ± 4e-09,7.43e-08 ± 4e-09,7.31e-08 ± 3.9e-09,7.19e-08 ± 3.9e-09,7.08e-08 ± 3.8e-09,,,CCCCCCCCC(=O)OC [methyl nonanoate],
